# Results from US20230050588A1, “ANTIOXIDANT OR SKIN STRESS INHIBITOR” (Shiseido Company, Ltd., priority 2020, published 2023).
# Key:
# Type in all cases: cell-based
# Set-up in all cases: key: ○ corresponds to genes whose expression is significantly changed; x corresponds to genes whose expression is not changed
# HMOX1 = assay: Microarray gene expression in keratinocytes UV-irradiated through wavelength conversion substance: HMOX1; settings: Normal Human Epidermal Keratinocytes; UV 100 mJ/cm^2 through substance solution without direct contact; 24 hours after irradiation
# Description: (§1) The wavelength conversion substances of (1) and (2) were dissolved in water to prepare solutions at concentrations of 1% and 5%.
# (§2) The wavelength conversion substances of (3) and (4) were dispersed in alcohol to prepare 5% and 10% dispersions.
# (§3) 1. Normal Human Epidermal Keratinocytes (PromoCell) were used. A cell suspension (1 mL) stored with liquid nitrogen was placed in a hot water bath (37° C.) and thawed until small ice pellets remained, and then diluted with 9 mL of warm KGM medium. 2. The diluted suspension was gently mixed and transferred to a T75 flask, and incubated overnight at 37° C. 3. On the following day, the medium was exchanged with 10 mL of fresh medium. 4. The medium was periodically exchanged (once every 2 to 3 days), while continuing growth of the cells. During this time, a microscope was used to observe the cells and to confirm that the cells had proliferated with the proper form. 5. Once the cells reached approximately 80% confluence, they were subcultured. 6. Subculturing of the cells was carried out by rinsing and aspirating once in 10 mL of warm PBS. 7. 5 mL of warm trypsin was added to the T75 flask to cover the bottom of the flask with the trypsin solution, and the mixture was aspirated after standing for 1 minute at room temperature. 8. The flask was set in an oven at 37° C. for 5 minutes (maximum) for keratinocytes. […]
# AhR = assay: Microarray gene expression in keratinocytes UV-irradiated through wavelength conversion substance: AhR; settings: Normal Human Epidermal Keratinocytes; UV 100 mJ/cm^2 through substance solution without direct contact; 24 hours after irradiation; expression of AhR is reduced
# Description: as §1, §2, §3
# AHRR = assay: Microarray gene expression in keratinocytes UV-irradiated through wavelength conversion substance: AHRR; settings: Normal Human Epidermal Keratinocytes; UV 100 mJ/cm^2 through substance solution without direct contact; 24 hours after irradiation
# Description: as §1, §2, §3
smiles,measurement,setting,value
"Cc1cc2nc3c(=O)[nH]c(=O)nc-3n(C[C@H](O)[C@H](O)[C@H](O)CO)c2cc1C [Vitamin B2, Riboflavin]",HMOX1 gene expression change (microarray),HMOX1,x
same,AhR gene expression change (microarray),AhR,○
same,AHRR gene expression change (microarray),AHRR,○
